Results on three compounds are retold here after patent publication US20050208490A1, “Ligand binding pocket peptide fragment of estrogen-related receptor 3 (err3) and uses thereof” (priority 2002, published 2005).

Numbering of substitutions follows the chain as printed. “Also recorded” adds a separate entry of the source. Read-outs that look alike come from different tables or passages of the source.

Experiment [1] addresses T1, His-tagged ERR3 LBD / GST-tagged SRC-1 RID complex (Homo sapiens, UniProt P62508).
T1 construct: cDNA fragments encoding wt or mutant ERR3 LBDs (residues 229 to 458, human and murine receptor are identical) were generated by PCR; made in house; host or cells: E. coli BL21 (DE3)
T1 sequence (P62508 229-458): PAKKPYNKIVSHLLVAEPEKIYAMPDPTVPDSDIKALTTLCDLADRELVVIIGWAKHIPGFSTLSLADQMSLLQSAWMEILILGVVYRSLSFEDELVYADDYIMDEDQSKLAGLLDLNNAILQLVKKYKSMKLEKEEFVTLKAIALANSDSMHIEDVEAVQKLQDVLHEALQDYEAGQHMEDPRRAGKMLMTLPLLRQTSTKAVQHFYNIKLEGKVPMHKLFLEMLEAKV
The experiment is described as follows: In vitro protein-protein interaction assay, wt ERR3 LBD with SRC-1 RID (native gel). It counts as biochemical. Conditions: 10^−4M ligand. The protocol:
(§1) The His-tagged wt or mutant ERR3 LBDs, the GST-tagged SRC-1 RID, and GST were expressed in E. coli BL21 (DE3) and partially purified by affinity chromatography using TALON (Clontech) or Glutathione Sepharose 4B (Pharmacia), respectively. […] After purification the proteins were dialyzed in assay buffer (20 mM Tris.HCl pH 8.0, 200 mM NaCl), and concentrated. For the protein-protein interaction assays […] (about 70 pmol) of His-tagged wt or mutant ERR3 LBD were mixed with […] (about 100 pmol) of GST-tagged SRC-1 RID or […] of GST and incubated on ice for 10 mins. […] Protein complexes were resolved on native polyacrylamide gradient gels (8%-25%) using the Phast System (Pharmacia).
(§2) In vitro interaction assays with the RID (amino acids 617-764) of the coactivator SRC-1 has first been performed. Hexahistidine (His)-tagged ERR3, LBD and GST-tagged SRC-1 RID were partially purified by affinity chromatography, the proteins were mixed, and complex formation was monitored on native polyacrylamide gels. […] Complexes were separated on native polyacrylamide gradient gels.

Experiment [2] has as its system mutant ERR3 LBDs (A272F, A272L, F435L, L345I, L345I-F435L, L345I-F435L-F450L) / GST-SRC-1 RID complex. Put plainly: In vitro protein-protein interaction assay, mutant ERR3 LBDs with SRC-1 RID (native gel). The class given is biochemical, human. To be noted: 10^−4M 4-OHT. The protocol: as §1, §2
In addition, the ligand-binding pocket of ERR3 has been enlarged by either mutating F435 to leucine or by introducing a triple point mutation (L345I-F435L-F450L) which creates an “ERα-like” ligand-binding pocket.

Experiment [3] addresses T2, Gal4-ERR3 (Homo sapiens, UniProt P62508).
T2 construct: cDNA fragments encoding wt or mutant ERR3 LBDs (residues 229 to 458, human and murine receptor are identical) were generated by PCR; expressed in transfected cells; host or cells: COS-1 cells (also Neuro2A and BHK)
T2 sequence (P62508 229-458): T1 sequence (P62508 229-458)
The experiment is described as follows: Transient transfection luciferase reporter assay, Gal4-ERR3 (wt LBD) in COS-1 cells. It counts as cell-based. The protocol: (§3) COS-1 and BHK cells were cultured in DMEM supplemented with 5% FCS, penicillin, streptomycin, and glutamine. Neuro2A cells were cultured in EMEM supplemented with 10% FCS, penicillin, streptomycin, glutamine, and non-essential amino acids. Transient transfection assays were carried out in 24-well plates (0.5×10^5 cells per well for COS-1 and Neuro2A cells, 0.25×10^5 cells per well for BHK cells) using the standard calcium phosphate coprecipitation technique as described in Greiner et al. (Greiner et al., 1996). Cells were transfected with 250 ng of Gal4(5×)-TATA-LUC, Gal4(3×)-TK-LUC, or ERE(2×)-TK-LUC reporter plasmid and 50 ng per well of pCMX-Gal4-ERR3 or pCMX-ERR3 expression plasmid. The empty plasmids pCMX-Gal4 and pCMX served as control. […] Luciferase activity was assayed as described in Greiner et al. (1996). All experiments were repeated at least three times.
(§4) Finally, it has been asked whether ERR3 could activate transcription independently of a putative endogenous ligand. The wt and mutant ERR3 LBDs were fused to the DNA-binding domain of Gal4, and Gal4-ERR3 fusion proteins were tested for their potential to activate transcription in transient transfection assays using synthetic reporters in eukaryotic cell lines. […]

For experiment [4], the system named is Gal4-ERR3 mutants (A272F, A272L, F435L, L345I-F435L-F450L). The experiment is described as follows: Transient transfection luciferase reporter assay, mutant Gal4-ERR3 fusion proteins in COS-1 cells. Conditions: 10^−6M 4-OHT. The class given is cell-based, human. The protocol: as §3, §4
Background: In a reporter assay the amount or activity of a reporter protein is the signal.

Experiment [5] has as its target full length ERR3 (Homo sapiens, UniProt P62508). The experiment is described as follows: Transient transfection with ERE(2×)-TK-LUC reporter, full length ERR3. The class given is cell-based. Conditions: in the presence of 4-OHT. The protocol:
as §3

Experiment [6] deals with T3, ERR3 (Homo sapiens, UniProt P62508).
T3 sequence (P62508 1-458): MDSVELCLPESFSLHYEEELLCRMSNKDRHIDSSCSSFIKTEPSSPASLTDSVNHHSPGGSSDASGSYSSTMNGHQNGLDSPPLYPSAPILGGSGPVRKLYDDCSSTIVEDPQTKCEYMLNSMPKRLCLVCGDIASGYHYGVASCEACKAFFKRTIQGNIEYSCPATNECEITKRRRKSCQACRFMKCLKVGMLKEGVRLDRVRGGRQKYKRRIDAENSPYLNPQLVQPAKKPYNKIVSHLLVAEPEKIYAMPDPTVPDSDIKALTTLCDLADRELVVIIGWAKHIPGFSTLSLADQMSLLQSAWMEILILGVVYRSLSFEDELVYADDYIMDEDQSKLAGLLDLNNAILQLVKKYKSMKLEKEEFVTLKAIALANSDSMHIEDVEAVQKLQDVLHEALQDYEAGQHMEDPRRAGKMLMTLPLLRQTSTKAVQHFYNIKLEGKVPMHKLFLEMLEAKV
To be noted: Coward et al. (2001); cited from earlier work.

Experiment [7] has as its system ERR1, ERR2 and ERR3. Conditions: Coward et al., 2001 / reported, cited from earlier work.
Experiment [8] addresses T3, ERR3. Conditions: Coward et al. (2001); cited from earlier work. The source holds these as a separate data set.
Experiment [9] deals with T4, ERRα (Homo sapiens, UniProt P11474).
T4 sequence (P11474 1-423): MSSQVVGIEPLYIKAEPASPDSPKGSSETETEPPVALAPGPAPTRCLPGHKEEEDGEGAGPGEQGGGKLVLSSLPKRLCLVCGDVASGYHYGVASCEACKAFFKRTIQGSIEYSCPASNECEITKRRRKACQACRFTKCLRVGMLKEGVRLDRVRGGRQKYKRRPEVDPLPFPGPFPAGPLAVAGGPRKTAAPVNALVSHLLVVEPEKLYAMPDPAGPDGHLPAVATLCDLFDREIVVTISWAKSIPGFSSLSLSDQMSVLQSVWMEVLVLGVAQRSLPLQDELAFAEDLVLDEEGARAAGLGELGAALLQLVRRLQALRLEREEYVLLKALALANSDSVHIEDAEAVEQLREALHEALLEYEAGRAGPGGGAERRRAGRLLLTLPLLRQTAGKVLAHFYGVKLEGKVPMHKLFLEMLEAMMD
Conditions: micromolar concentrations; Yang and Chen (1999); cited from earlier work.

The target in experiment [10] is T5, ERR1 mutant F328 to alanine (Homo sapiens, UniProt P11474, F232A).
T5 sequence (P11474 1-423 F232A): T4 sequence (P11474 1-423) with F232A
To be noted: Chen S et al., 2001; cited from earlier work.

As to 4-hydroxytamoxifen [4-OHT], the “conformational change of the ERR3 LBD (migration on native gels)” value in experiment [1] was “significant conformational change”. In [1] (native polyacrylamide gradient gel), the “disruption of the ERR3 LBD/GST-SRC-1 RID complex” value was “specifically disrupted”. For the same compound, the figures for the “disruption of the mutant ERR3 LBD/GST-SRC-1 RID complex” value in experiment [2] (mutant F435L) and in experiment [2] (mutants A272F or A272L) were “still disrupted” and “no effect is observed”, respectively. The “antagonist action on mutant ERR3 LBD in vitro” value in experiment [2] (mutants F435L, L345I-F435L, L345I-F435L-F450L) is on record as “still acts as an antagonist”. Besides, the “repression of Gal4-ERR3 constitutive activity below basal levels of the TK promoter” value in experiment [3] (Gal4(3×)-TK-LUC reporter) is reported as “neither 4-OHT nor DES repress the constitutive activity of Gal4-ERR3 below basal levels”. Also, the “transcriptional activity of Gal4-ERR3” value in [3] (Gal4(5×)-TATA-LUC reporter, 10^−6M 4-OHT) is reported as “blocked efficiently”. In addition, the “transcriptional activity of Gal4-ERR3 mutants” value in experiment [4] (Gal4-ERR3(A272F) or Gal4-ERR3(A272L)) is reported as “but not of Gal4-ERR3(A272F) or Gal4-ERR3(A272L)”; in [4] (Gal4-ERR3(F435L) and Gal4-ERR3(L345I-F435L-F450L)), “antagonizes the transcriptional activity”. Moreover, in [5], the “active repression of transcription of the TK promoter by full length ERR3” value is recorded as “does not actively repress transcription of the TK promoter”. In addition, the “effect on ERR3 transcriptional activity” value in [6] is reported as “repressed transactivation; also recorded: selectively block the transcriptional activity of ERR3”. In addition, the “binding to ERR isotypes” value was “binds both ERR2 and ERR3” in experiment [7] (listed as 40HT); “does not bind ERR1; also recorded: binds to ERR2 and ERR3 but not to ERR1” in experiment [7]. For the same compound, the “affinity of binding to ERR3” value in experiment [8] is “submicromolar”.

Consider `ClC1=C(Cl)C2(Cl)C3C(Cl)C(Cl)CC3C1(Cl)C2(Cl)Cl` (centres unmarked) [chlordane], for which the “effect on ERRα basal activity” value in [9] is recorded as “decrease ERRα basal activity”.

As to `CC1(C)C(C(Cl)Cl)C2(Cl)C(Cl)C(Cl)C1(Cl)C2(Cl)Cl` (centres unmarked) [toxaphene], in experiment [9], the “effect on ERRα basal activity” value is recorded as “decrease ERRα basal activity”. Besides, the “activation of ERR1 F328A mutant” value in [10] is “can be activated by toxaphene”.
